One assay deals with enterococcus. To be noted: cited from earlier work.
For assay [1] the following is noted: incorporation of D—Ala—D—Lac by VRE; cited from earlier work.
Assay [2] in a line: Hydrolysis of D—Ala—D—Lac depsipeptide derivative 5 in aqueous phosphate buffer, followed by HPLC. It is filed as biochemical. The settings on record: substrate 5 0.5 mM, phosphate buffer pH 7.0, 37° C.; for effect on the rate of hydrolysis over buffer: peptides 12 mM. Here is the method: The ability of peptide 4a in cleaving the substrate 5 was assessed in aqueous phosphate buffer pH=7 at 37° C. Stock solutions of 16 mM of 5 and 130 mM of peptide were made in water. Phosphate buffer solution of 25 mM was made by adjusting the pH of a K2HPO4 solution to 7.0 by addition of concentrated HCl. To a 1.5 mL glass vial (Waters) were added 5 μL stock solution of 5 and 15 μL stock solution of peptide, followed by 135 μL buffer. The volume was adjusted to 160 μL by addition of water. Vials were kept in an incubator at 37° C. and 2 μL aliquots were taken every 3 h. Each aliquot was diluted with water to 5 μL and 2 μL were injected in HPLC. Separation of components was carried out on a reverse phase column C18 (Waters) using a gradient water/acetonitrile (0.1% TFA).
Using HPLC and monitoring the p-NO2-phenyl derivative by UV at 275 nm, we could easily follow the disappearance of D—Ala—D—Lac derivative 5 and the formation of the hydrolyzed product 4. Under these conditions, we observed a 20% cleavage of the depsipeptide in 24 hrs. […] This proves that the whole structural assembly is necessary for the reaction to occur and that the reaction is not an artifact resulted by a change in the pH of the media due to the presence of the amine functionality.
N-acylated prolinol derivatives (FIG. 5) are the simplest structures that could fulfill such requirements. Their primary alcohol functionality forms an internal H-bond with the amide, the structures allow for the addition of the […] (NH2) through various linkers and moreover, are chiral molecules. The derivatives were tested for their ability to cleave 5 in aqueous phosphate buffer pH=7.0 at 37° C. (FIG. 6). […] One explanation for the higher activity of the very simple molecule SProC5 compared to 4a is the enhanced nucleophilicity of its hydroxyl (H position in H^1 NMR 7.59 ppm vs 6.62 ppm). Activity declines in the series with the decrease of the chain length from 5 carbons to 1 carbon. […] To confirm these speculations we compared the chemical shifts of the OH and NH in the H^1 NMR spectra of the NHBoc protected SProCn series (Table 1).
Substrate 5 was used at 0.5 mM, while prolinol derivatives were run at 12 mM. The graph is the average of three separate assays (FIG. 6).
The ability of peptide 4a in cleaving the substrate 5 was assessed in aqueous phosphate buffer pH 7 at 37° C. Using HPLC and monitoring the p-NO2-phenyl derivative by UV at 275 nm, we could easily follow the disappearance of D—Ala—D—Lac derivative 5 and the formation of the hydrolyzed product 4. […] A 20% hydrolysis of D—Ala—D—Lac in the presence of 4a was observed after 24 h.
The prolinol derivatives were additionally, tested for their ability to cleave 5 in aqueous phosphate buffer pH 7.0 at 37° C. […]

Assay [3] can be described thus: Combinatorial library screening on beads against red dye-labeled substrate 1. To be noted: substrate 1 in 12DCE or DMF, 3-5 days. The procedure:
Substrate 1 is treated with combinatorial libraries of potential nucleophiles on solid phase synthesis beads (2), and then those library members are selected that covalently linked the dye to a bead (3). This could be possible assuming that noncovalently bound material would be washed away with a polar solvent (Scheme 2). [drawing 4]
The assay for screening these libraries against 1 involves shaking a desired amount of library beads with the solution of labeled substrate for a period of time. To the library beads were added 200 μL solution of substrate 1 in 12DCE (or DMF), and the mixture was rotated for 3-5 days in a small glass vial. DMF was added and shaking continued for 1 h. Solvent was removed and the washing was repeated several times. One wash was performed with one drop of benzylamine added to DMF to remove any remaining physically bound substrate. The strongly red beads were picked individually in 1.5 μL DMF (in 25 μL capillaries) and photolysed for 6 h under a short wave UV lamp. Decoding was achieved by injecting the content of each capillary in EC-GC and comparing the chromatogram to a standard (20,21).
After the reaction occurred, the label-carrying beads were selected and analyzed (20,21). The initial assays were performed in 1,2-dichloroethane (12DCE) at a concentration of 2.3 mM in substrate 1.
The assay for screening these libraries against 1 involved shaking a desired amount of library beads with the solution of labeled substrate for a period of time. After the reaction occured, the label-carrying beads were selected and analyzed. The initial assays were performed in 1,2-dichloroethane (12DCE) at a concentration of 2.3 mM in substrate 1. After 3 days of shaking, the beads were extensively washed with dimethylformamide (DMF) and once with a diluted solution of benzylamine in DMF to remove any physically bound substrate (FIGS. 9A and 9B).

Like-named read-outs stand apart in the source and are kept apart here.

As for `CN[C@H](CC(C)C)C(=O)N[C@H]1C(=O)N[C@@H](CC(N)=O)C(=O)N[C@H]2C(=O)N[C@H]3C(=O)N[C@H](C(=O)N[C@H](C(=O)O)c4cc(O)cc(O)c4-c4cc3ccc4O)[C@H](O)c3ccc(c(Cl)c3)Oc3cc2cc(c3O[C@@H]2O[C@H](CO)[C@@H](O)[C@H](O)[C@H]2O[C@H]2C[C@](C)(N)[C@H](O)[C@H](C)O2)Oc2ccc(cc2Cl)[C@H]1O` [vancomycin], the MIC of vancomycin was 32 µg/mL with enterococcus (10% of the peptidoglycan altered to D—Ala—D—Lac) and 2 µg/mL in the assay on enterococcus (unaltered peptidoglycan). For the same molecule, the “decrease of affinity of vancomycin for the peptidoglycan layer” value in assay [1] was “over 1000 fold”. For “BnNHD—Pro—L—Ser(OH)NHCONMe2 [compound 6]”, the “effect on the rate of hydrolysis over buffer” value (from here on “effect … over buffer”) in assay [2] is on record as “No significant effect”. Consider BnNHL—LysNHAc [compound 8], for which the “effect … over buffer” value in assay [2] is on record as “No significant effect”. With “BnNHL—Lys—D—Pro—L—Ser(tBut)CONMe2 [compound 7]”, the “effect … over buffer” value in assay [2] is on record as “No significant effect”.

Turning to BnNHL—Lys—D—Pro—L—SerCONMe2 [4a], the “cleavage of the depsipeptide in 24 hrs” value in assay [2] (compound 12 mM, 24 h) was determined as 20%.

Regarding D—Asn—L—Lys—L—Pro—L—SerNH2, the “activity in bead screening (red beads / active sequence)” value in assay [3] is given as “active sequence”. In the case of D—Lys—L—Pro—D—Ser dimethylurea, the “activity in bead screening (red beads / active sequence)” value in assay [3] is on record as “never found as an active sequence”.

On to L—Lys—D—Pro—L—Ser dimethylurea, for which the “activity in bead screening (red beads / active sequence)” value in assay [3] was “an active sequence found more frequently in the assays”.
